Results from article PMC3179684 (Toxicological Sciences, 2011).
Values joined by “and” are separate entries in the source; they are usually repeats but may differ in a detail not shown here. Equal entries are not always repeated. Where two headings read alike, the source gives them in different places. Marks after values point to notes of the source that are not given here.

Legend:
CYP2E1 [1] = biological target: T1, CYP2E1 (Mus musculus, UniProt Q05421); assay: EO formation in ET-exposed mouse liver microsomes; type: in vitro ADME, B6C3F1 mice
CYP2E1 [2] = biological target: CYP2E1 (Rattus norvegicus, UniProt P05182); assay: EO formation in ET-exposed rat liver microsomes; type: in vitro ADME, Fischer 344 rats
CYP2E1 [3] = biological target: CYP2E1 (Homo sapiens, UniProt P05181); assay: EO formation in ET-exposed human liver microsomes; type: in vitro ADME
CYP [4] = assay: EO formation in ET-exposed mouse lung microsomes; type: in vitro ADME, B6C3F1 mice
CYP [5] = assay: EO formation in ET-exposed rat lung microsomes; type: in vitro ADME, Fischer 344 rats
CYP2E1 [6] = biological target: T1, CYP2E1; assay: EO formation in ET-exposed liver microsomes of wild-type mice; type: in vitro ADME, 129S1/SvImJ mice (wild-type mice)
CYP [7] = assay: EO formation in ET-exposed liver microsomes of CYP2E1 knockout mice; type: in vitro ADME, 129/Sv-Cyp2e1tm1Gonz/J mice (CYP2E1 knockout mice); settings: pooled liver microsomes of 50 CYP2E1 knockout mice
CYP [8] = assay: Metabolic ET elimination in mouse liver microsomes; type: in vitro ADME, B6C3F1 mice; settings: 10 mg protein/ml, ET 170 ppm in vessel atmosphere
[9] = Thermodynamic partition coefficient medium-to-air; type: physicochemical; settings: microsomal incubations, 37°C (ET n = 5, EO n = 3)
[10] = mouse, gas uptake; ref Artati et al. (2009); cited from earlier work
[11] = rat, gas uptake, cited from earlier work
hepatic CYP = settings: rats, 600 ppm ET, cited from earlier work
[12] = value used in the physiological toxicokinetic model; ref Csanády et al. (2000); cited from earlier work
[13] = rats; ref Hamm et al., 1984; cited from earlier work
[14] = in vitro and in vivo in rodents; ref Victorin and Ståhlberg, 1988; Walker et al., 2000; cited from earlier work
epoxide hydrolase (EH) [15] = settings: mouse liver microsomes; about the same obtained here; ref Faller et al., 2001; cited from earlier work
epoxide hydrolase (EH) [16] = settings: rat liver microsomes; about the same obtained here; ref Faller et al., 2001; cited from earlier work
[17] = GSH 15 mmol/l; ref Faller et al. (2001); cited from earlier work
[18] = 37°C, pH 7, estimated; ref Faller et al., 2001; cited from earlier work
[19] = determined using a synthetic iron porphyrin; ref Collman et al., 1986; cited from earlier work

T1 sequence (Q05421 whole entry): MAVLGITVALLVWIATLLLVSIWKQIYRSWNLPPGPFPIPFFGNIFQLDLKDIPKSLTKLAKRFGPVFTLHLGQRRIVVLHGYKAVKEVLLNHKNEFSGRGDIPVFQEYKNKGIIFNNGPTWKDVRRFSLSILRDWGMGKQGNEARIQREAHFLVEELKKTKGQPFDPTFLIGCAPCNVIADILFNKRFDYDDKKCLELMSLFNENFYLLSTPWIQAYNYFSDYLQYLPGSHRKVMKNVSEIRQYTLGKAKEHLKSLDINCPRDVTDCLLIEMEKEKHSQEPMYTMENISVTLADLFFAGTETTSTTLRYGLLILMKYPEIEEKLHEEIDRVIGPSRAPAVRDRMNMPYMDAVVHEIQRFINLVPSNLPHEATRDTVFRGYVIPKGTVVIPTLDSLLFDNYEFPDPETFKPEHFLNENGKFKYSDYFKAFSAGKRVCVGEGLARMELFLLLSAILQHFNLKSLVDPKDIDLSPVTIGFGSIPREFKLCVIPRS
Chain of CYP2E1 (Homo sapiens, UniProt P05181) (P05181 whole entry): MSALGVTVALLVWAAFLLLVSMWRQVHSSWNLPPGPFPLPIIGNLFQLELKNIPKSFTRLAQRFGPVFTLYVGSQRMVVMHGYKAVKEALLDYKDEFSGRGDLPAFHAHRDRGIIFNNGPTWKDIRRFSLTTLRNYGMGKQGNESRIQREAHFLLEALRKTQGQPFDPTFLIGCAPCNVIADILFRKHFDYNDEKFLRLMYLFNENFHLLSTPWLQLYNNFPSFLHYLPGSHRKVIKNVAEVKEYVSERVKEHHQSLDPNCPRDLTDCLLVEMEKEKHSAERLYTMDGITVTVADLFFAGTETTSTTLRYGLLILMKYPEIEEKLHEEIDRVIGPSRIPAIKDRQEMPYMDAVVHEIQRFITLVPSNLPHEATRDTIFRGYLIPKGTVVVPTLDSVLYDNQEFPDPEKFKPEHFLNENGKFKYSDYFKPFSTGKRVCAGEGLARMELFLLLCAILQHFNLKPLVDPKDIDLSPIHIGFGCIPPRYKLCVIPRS
Chain of CYP2E1 (Rattus norvegicus, UniProt P05182) (P05182 whole entry): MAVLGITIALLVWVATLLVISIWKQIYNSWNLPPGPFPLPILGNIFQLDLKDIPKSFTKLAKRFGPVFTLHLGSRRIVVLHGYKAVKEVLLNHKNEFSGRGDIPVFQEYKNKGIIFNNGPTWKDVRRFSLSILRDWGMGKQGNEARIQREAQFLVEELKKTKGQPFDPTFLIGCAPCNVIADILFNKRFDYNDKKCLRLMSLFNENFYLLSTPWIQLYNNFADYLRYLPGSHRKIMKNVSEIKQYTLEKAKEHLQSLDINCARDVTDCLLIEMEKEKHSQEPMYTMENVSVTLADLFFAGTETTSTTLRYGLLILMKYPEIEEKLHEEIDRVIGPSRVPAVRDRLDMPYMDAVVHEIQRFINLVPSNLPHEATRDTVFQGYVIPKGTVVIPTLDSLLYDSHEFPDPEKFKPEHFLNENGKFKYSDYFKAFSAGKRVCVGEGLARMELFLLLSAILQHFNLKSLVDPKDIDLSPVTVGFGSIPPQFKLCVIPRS

## C=C [ET, ethylene]
CYP2E1 [1]; liver microsomes pooled from 50 mice, 37°C, mean ± SE
  VmaxEO (maximum EO formation rate): 0.567 nmol/min/mg protein and 0.567 ± 0.038 nmol/min/mg protein
CYP2E1 [1]; mice, very high ET concentrations, expected from k4
  time in which hepatic CYP2E1 decreases to about one third of the initial status: 18 min
CYP2E1 [1]; mouse, Km in suspension divided by Kst 0.55
  Km, predicted from in vitro: 400 ppm in air
CYP2E1 [1]; pooled mouse liver microsomes, mean ± SE
  k3/k4 (partition ratio): 100 ± 9
CYP2E1 [1]; pooled mouse liver microsomes, six ET incubations, mean ± SE
  k4 (suicide inactivation rate constant): 0.060 ± 0.005 min⁻¹
CYP2E1 [1]; pooled mouse liver microsomes, VmaxEO divided by CYP2E1 content, mean ± SE
  k3 (catalytic rate constant of EO formation): 5.9 ± 0.6 min⁻¹
CYP2E1 [2]; liver microsomes pooled from 10 rats, 37°C, mean ± SE
  VmaxEO (maximum EO formation rate): 0.401 nmol/min/mg protein and 0.401 ± 0.013 nmol/min/mg protein
CYP2E1 [2]; pooled rat liver microsomes, eight ET incubations, mean ± SE
  k4 (suicide inactivation rate constant): 0.070 ± 0.006 min⁻¹
CYP2E1 [2]; pooled rat liver microsomes, mean ± SE
  k3/k4 (partition ratio): 169 ± 15
CYP2E1 [2]; pooled rat liver microsomes, VmaxEO divided by CYP2E1 content, mean ± SE
  k3 (catalytic rate constant of EO formation): 11.2 ± 1.5 min⁻¹
CYP2E1 [2]; rat, Km in suspension divided by Kst 0.50
  Km, predicted from in vitro: 1516 ppm in air
CYP2E1 [3]; human liver microsomes, mean ± SE
  k3/k4 (partition ratio): 39 ± 6
CYP2E1 [3]; human liver microsomes, nine ET incubations, mean ± SE
  k4 (suicide inactivation rate constant): 0.098 ± 0.013 min⁻¹
CYP2E1 [3]; human, Km in suspension divided by Kst 0.33
  Km, predicted from in vitro: 963 ppm in air
CYP2E1 [3]; humans, very high ET concentrations, expected from k4
  time in which hepatic CYP2E1 decreases to about one third of the initial status: 11 min
CYP2E1 [3]; liver microsomes from one individual, mean ± SE
  VmaxEO (maximum EO formation rate): 0.253 ± 0.0002 nmol/min/mg protein
CYP2E1 [3]; liver microsomes pooled from 25 humans, 37°C, mean ± SE
  VmaxEO (maximum EO formation rate): 0.219 nmol/min/mg protein and 0.219 ± 0.005 nmol/min/mg protein
CYP2E1 [3]; pooled human liver microsomes, VmaxEO divided by CYP2E1 content, mean ± SE
  k3 (catalytic rate constant of EO formation): 3.2 ± 0.2 min⁻¹
CYP [4]; lung microsomes pooled from 150 mice, two incubations
  k4 (suicide inactivation rate constant): 0.306 min⁻¹ and 0.326 min⁻¹
CYP [4]; pooled mouse lung microsomes, mean of 16,500 and 75,400 ppm ET
  VmaxEO (maximum EO formation rate): 0.073 nmol/min/mg protein
CYP [5]; lung microsomes pooled from 50 rats, two incubations
  k4 (suicide inactivation rate constant): 0.573 min⁻¹ and 0.392 min⁻¹
CYP [5]; pooled rat lung microsomes, mean of 18,600 and 57,800 ppm ET
  VmaxEO (maximum EO formation rate): 0.055 nmol/min/mg protein
CYP2E1 [6]; liver microsomes
  VmaxEO in wild-type mice relative to CYP2E1 knockout mice: about 15 times higher
  ratio of VmaxEO/Km in wild-type mice to VmaxEO/Km in CYP2E1 knockout mice: 340
CYP2E1 [6]; pooled liver microsomes of 50 wild-type mice
  VmaxEO (maximum rate of EO formation): 1.1 nmol/min/mg protein
CYP [7]
  VmaxEO (maximum rate of EO formation): 0.074 nmol/min/mg protein
CYP [8]
  initial rate of metabolic ET elimination: 0.069 nmol/min/mg protein
[9]
  Keq (thermodynamic partition coefficient medium-to-air): 0.2 ± 0.06 and 0.2
[10]
  Km, determined in vivo: 105 ^d ppm in air
  VmaxET, determined in vivo: 15 ^d μmol/h/kg
[11]; ref Andersen et al. (1980)
  Km, determined in vivo: 218 ^f ppm in air
  VmaxET, determined in vivo: 8.6 ^f μmol/h/kg
[11]; ref Bolt et al. (1984)
  Km, determined in vivo: 204 ^e ppm in air
  VmaxET, determined in vivo: 8.5 ^e μmol/h/kg
Hepatic CYP; after 4 h, ref Fennell et al., 2004
  hepatic 4-nitrophenol hydroxylase activity (predominantly CYP2E1) remaining: 50%
Hepatic CYP; after 360 min of exposure, ref Maples and Dahl, 1993
  hepatic CYP remaining after inactivation: 68%
[12]
  apparent Michaelis constant of the ET oxidation in the liver compartment: 0.0005 mmol/L
[13]
  long-term carcinogenicity study: negative
[14]
  mutagenicity: negative

## CC1CO1 (centres unmarked) [PO, propylene oxide]
Epoxide hydrolase (EH) [15]
  hepatic microsomal elimination clearance: 4.4 μl/min/mg protein
Epoxide hydrolase (EH) [16]
  hepatic microsomal elimination clearance: 9.9 μl/min/mg protein
[17]
  half-life of nonenzymatic GSH conjugation: 1.7 h
[18]
  half-life of the noncatalyzed aqueous hydrolysis: 88 h

## C=Cc1ccccc1 [Styrene, styrene]
[19]
  partition ratio k3/k4: 10,000
